Assays:
human PTH1R = molecular target: T1, human PTH1R (Homo sapiens, UniProt Q03431); test: In vitro cAMP signal activity via the human PTH1R (HKRK-B7 cells); format: cell-based; details: concentration at 20% cAMP signaling activity, human PTH(1-34) at 100 nM = 100%
T1 construct: expressed in transfected cells; host or cells: HKRK-B7 (LLC-PK1 porcine kidney cells stably expressing human PTH1R)
T1 sequence (Q03431 27-593): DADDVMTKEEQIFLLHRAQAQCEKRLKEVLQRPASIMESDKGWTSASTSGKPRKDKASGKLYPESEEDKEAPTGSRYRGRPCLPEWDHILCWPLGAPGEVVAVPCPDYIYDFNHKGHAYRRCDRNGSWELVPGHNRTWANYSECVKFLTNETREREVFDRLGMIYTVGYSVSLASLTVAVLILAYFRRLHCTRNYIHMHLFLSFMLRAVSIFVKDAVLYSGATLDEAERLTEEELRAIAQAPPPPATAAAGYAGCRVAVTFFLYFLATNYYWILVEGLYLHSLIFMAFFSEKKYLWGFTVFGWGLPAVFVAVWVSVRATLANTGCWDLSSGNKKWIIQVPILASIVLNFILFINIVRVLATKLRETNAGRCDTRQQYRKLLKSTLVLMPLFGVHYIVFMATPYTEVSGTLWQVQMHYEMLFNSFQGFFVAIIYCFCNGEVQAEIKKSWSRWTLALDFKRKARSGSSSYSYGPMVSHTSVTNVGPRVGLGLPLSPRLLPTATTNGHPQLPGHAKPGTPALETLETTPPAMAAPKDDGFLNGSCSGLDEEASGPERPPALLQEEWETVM
Experimental: Human PTH(1-34) and calcitonin were purchased from Peptide Institute, Inc. (Osaka, Japan), dissolved in 10 mM acetic acid to 1 mM and stored in a −80° C. freezer.
Cells were cultured in Dulbecco's modified Eagle's medium (DMEM) supplemented with 10% fetal bovine serum (Hyclone), 100 units/ml penicillin G and 100 μg/ml streptomycin sulfate (Invitrogen Corp) at 37° C. in a humidified atmosphere containing 5% CO2.
cAMP signal transduction analysis utilized LLC-PK1 cells not expressing the PTH1R, and HKRK-B7 cells, that is, LLC-PK1 cells overexpressing the human PTH1R at 9.5×10^5 receptors/cell (Takasu et al., J. Bone. Miner. Res. 14:11-20, 1999).
HKRK-B7 or LLC-PK1 cells were seeded into a 96-well plate at 1×10^5 cells/well and incubated overnight. On the following day, 50 μl of cAMP assay buffer (DMEM, 2 mM IBMX, 0.2 mg/ml bovine serum albumin, 35 mM Hepes-NaOH, pH 7.4) containing human PTH(1-34) or each compound was added and the plate was placed in a 37° C. incubator. The cells were incubated for 20 minutes. After removing the medium, the cells were washed with 100 μl of cAMP assay buffer once. The plate was placed on dry ice powder to freeze the cells and then removed from the dry ice. The cells were lysed with 40 μl of 50 mM HCl and frozen again on dry ice. The amount of intracellular cAMP produced was measured using a commercially available cAMP EIA kit (Biotrack cAMP EIA system, GE health care).
Analyses were performed using a variable gradient S-shaped dose-response curve equation.

rat PTH1R = molecular target: T2, rat PTH1R (Rattus norvegicus, UniProt P25961); test: In vitro cAMP signaling activity via the rat PTH1R (LLC-PK46_RATO_PTH1R cells); format: cell-based; details: LLC-PK46_RATO_PTH1R cells overexpressing rat PTH1R
T2 construct: expressed in transfected cells
T2 sequence (P25961 27-591): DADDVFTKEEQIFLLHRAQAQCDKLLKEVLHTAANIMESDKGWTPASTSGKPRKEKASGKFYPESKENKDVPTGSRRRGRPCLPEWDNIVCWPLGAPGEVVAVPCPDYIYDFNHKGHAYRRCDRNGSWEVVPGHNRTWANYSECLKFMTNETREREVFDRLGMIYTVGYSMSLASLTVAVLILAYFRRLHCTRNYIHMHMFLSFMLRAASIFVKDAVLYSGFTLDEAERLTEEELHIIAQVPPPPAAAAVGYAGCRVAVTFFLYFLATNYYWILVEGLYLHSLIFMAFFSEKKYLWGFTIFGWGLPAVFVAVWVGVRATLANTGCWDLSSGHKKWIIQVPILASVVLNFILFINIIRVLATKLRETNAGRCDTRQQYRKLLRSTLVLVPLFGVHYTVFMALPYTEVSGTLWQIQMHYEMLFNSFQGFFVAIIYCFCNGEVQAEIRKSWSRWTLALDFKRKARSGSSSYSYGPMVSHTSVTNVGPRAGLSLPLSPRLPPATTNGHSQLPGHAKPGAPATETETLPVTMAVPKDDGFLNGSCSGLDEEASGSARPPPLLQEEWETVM
From the text: Instead of HKRK-B7 cells, LLC-PK46_RATO_PTH1R cells overexpressing rat PTH1R, which were established at Chugai Pharmaceutical, were used to take measurements in a similar manner to Reference Test Example 1.

- EC20 (human PTH1R): 1100 nM
- EC20 (rat PTH1R): 500 nM
Compound: Cc1cc(N2C(=O)NC(=O)C2(C)C)cc(C)c1CCS(=O)(=O)N1CCC2(CC1)N=C(c1ccc(OC(F)(F)F)cc1)NC2=O [Compound 7, 1-(3,5-dimethyl-4-(2-((4-oxo-2-(4-(trifluoromethoxy)phenyl)-1,3,8-triazaspiro[4.5]deca-1-en-8-yl)sulfonyl)ethyl)phenyl)-5,5-dimethylimidazolidine-2,4-dione]

Reference: US9993462B2, “Hydantoin derivative-containing pharmaceutical composition” (Chugai Seiyaku Kabushiki Kaisha, priority 2014, dated 2018)
